From publication PMC10890502, “Prevention of Protease-Induced Degradation of Desmoplakin via Small Molecule Binding” (Journal of Personalized Medicine, 2024) come the findings set out here.

Substitutions are numbered along the chain they refer to. Counter-ions that a name gives are not always drawn. Like-named read-outs stand apart in the source and are kept apart here.

What all share (assay): biochemical
Assay [1] addresses T1, sDSP (DSP178–627) (Homo sapiens, UniProt P15924, S442F).
T1 construct: gene DSP; N-terminal spectrin repeat/SH3 fragment, residues 178-627; pGEX-1 GST fusion cut with thrombin, E. coli BL21(DE3); fluorescein-5-maleimide label on exposed cysteines (C405, C524)
T1 sequence (P15924 178-627 S442F): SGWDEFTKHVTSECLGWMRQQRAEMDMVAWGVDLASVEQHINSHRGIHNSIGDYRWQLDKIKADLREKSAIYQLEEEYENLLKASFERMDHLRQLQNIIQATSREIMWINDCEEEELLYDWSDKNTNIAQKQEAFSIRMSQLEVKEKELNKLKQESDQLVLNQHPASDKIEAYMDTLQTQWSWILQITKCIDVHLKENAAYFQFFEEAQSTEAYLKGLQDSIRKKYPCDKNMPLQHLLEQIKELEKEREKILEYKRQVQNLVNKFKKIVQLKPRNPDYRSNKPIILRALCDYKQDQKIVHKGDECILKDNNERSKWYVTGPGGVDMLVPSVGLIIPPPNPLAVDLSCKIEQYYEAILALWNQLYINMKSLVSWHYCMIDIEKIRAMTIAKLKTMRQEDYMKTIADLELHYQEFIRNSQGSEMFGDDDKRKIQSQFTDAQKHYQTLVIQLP
Also noted: FITC-sDSP S442F degradation by trypsin (1:50), fluorescence polarization after 60 min, per cent of protease-only control. To be noted: degradation rate of DSP S442F by trypsin; read-out: % of control remaining. How it is done: Fluorescence Polarization (FP) assays were conducted in […] format using a BioTek Synergy H4 plate reader with polarization capacity (Agilent; Savage, MD, USA). All samples were run at 25 °C using PBS pH 7.4, 1 mM DTT, 10 mM CaCl2, 5% DMSO, and […] FITC- DSP178–627, with 500 μM of each drug. Trypsin, chymotrypsin, or calpain at either 1:50, 1:50, or 1:20 concentration was added directly before data collection with an average void time of 2 min. Control experiments in each plate were conducted in triplicate and consisted of DSP178–627 + DMSO + protease as a positive control and DSP178–627 + DMSO + [compound left out] + protease as a negative control. Only plates that had functional positive and negative controls were used in data analysis. Samples were excited at 485 nm, and polarization was monitored at 528 nm. Data were collected at 5 min increments for 1–3 h. A mutation that partially occludes the DSP calpain cleavage site rescues DSP protein levels. We next assessed whether protease-dependent cleavage can also be blocked by small molecules. We screened 2496 FDA-approved drugs for their ability to prevent trypsin-dependent cleavage of sDSP S442F in our FP assay (Figure 3A). […] No change in fluorescence polarization after an hour is indicative of 0% protein degradation rate, as occurs in the [compound left out] positive control. […] (A) sDSP S442F degradation in the presence of trypsin plus 2496 compounds from the Cayman chemical “FDA library”. A degradation rate of 100% indicates the same desmoplakin degradation rate with and without the addition of 500 μM drug while a 0% rate indicates no degradation, as judged by fluorescent polarization values after 1 h. A trypsin-only control and a trypsin + [compound left out] control is indicated. Protection (red lines) was arbitrarily set between 33% and −10%. […] (B) Example of how the data in A was generated.

For assay [2], the target named is T2, sDSP (DSP178–627) (Homo sapiens, UniProt P15924, R451G).
T2 construct: gene DSP; N-terminal spectrin repeat/SH3 fragment, residues 178-627; pGEX-1 GST fusion cut with thrombin, E. coli BL21(DE3); fluorescein-5-maleimide label on exposed cysteines (C405, C524)
T2 sequence (P15924 178-627 R451G): T1 sequence (P15924 178-627 S442F) with F265S, R274G
Further details: FITC-sDSP degradation by calpain (1:20), fluorescence polarization after 60 min, per cent of calpain-only control. To be noted: degradation rate of DSP R451G by calpain; read-out: % of control remaining. As for the experimental part:
(§1) Fluorescence Polarization (FP) assays were conducted in […] format using a BioTek Synergy H4 plate reader with polarization capacity (Agilent; Savage, MD, USA). All samples were run at 25 °C using PBS pH 7.4, 1 mM DTT, 10 mM CaCl2, 5% DMSO, and […] FITC- DSP178–627, with 500 μM of each drug. Trypsin, chymotrypsin, or calpain at either 1:50, 1:50, or 1:20 concentration was added directly before data collection with an average void time of 2 min. Control experiments in each plate were conducted in triplicate and consisted of DSP178–627 + DMSO + protease as a positive control and DSP178–627 + DMSO + [compound left out] + protease as a negative control. Only plates that had functional positive and negative controls were used in data analysis. Samples were excited at 485 nm, and polarization was monitored at 528 nm. Data were collected at 5 min increments for 1–3 h. […] Therefore, we next tested whether these 62 compounds also prevent wildtype and variant DSP degradation in the presence of calpain. […] (A) Normalized fluorescent polarization of WT and sDSP variants in the presence of a 1:20 ratio of calpain plus 500 μM drug, as compared to calpain alone (black) (B) Identity and chemical structure of the six best-performing compounds.

Another assay has as its target T3, sDSP S507F (Homo sapiens, UniProt P15924, S507F).
T3 construct: gene DSP; N-terminal fragment, residues 178-627
Further details: FITC-sDSP degradation by calpain (1:20), fluorescence polarization after 60 min, per cent of calpain-only control. To be noted: degradation rate of DSP S507F by calpain; read-out: % of control remaining. As for the experimental part:
as §1

The target in assay [3] is T1, sDSP (DSP178–627). Also noted: FITC-sDSP degradation by calpain (1:20), fluorescence polarization after 60 min, per cent of calpain-only control. To be noted: degradation rate of DSP S442F by calpain; read-out: % of control remaining. As for the experimental part:
as §1

Assay [4] concerns the target T4, sDSP (DSP178–627) (Homo sapiens, UniProt P15924).
T4 construct: gene DSP; N-terminal spectrin repeat/SH3 fragment, residues 178-627; pGEX-1 GST fusion cut with thrombin, E. coli BL21(DE3); fluorescein-5-maleimide label on exposed cysteines (C405, C524)
T4 sequence (P15924 178-627): T1 sequence (P15924 178-627 S442F) with F265S
Also noted: FITC-sDSP degradation by calpain (1:20), fluorescence polarization after 60 min, per cent of calpain-only control. To be noted: degradation rate of DSP WT by calpain; read-out: % of control remaining. How it is done: as §1

T3 sequence (P15924 whole entry S507F, the tested form may be a part): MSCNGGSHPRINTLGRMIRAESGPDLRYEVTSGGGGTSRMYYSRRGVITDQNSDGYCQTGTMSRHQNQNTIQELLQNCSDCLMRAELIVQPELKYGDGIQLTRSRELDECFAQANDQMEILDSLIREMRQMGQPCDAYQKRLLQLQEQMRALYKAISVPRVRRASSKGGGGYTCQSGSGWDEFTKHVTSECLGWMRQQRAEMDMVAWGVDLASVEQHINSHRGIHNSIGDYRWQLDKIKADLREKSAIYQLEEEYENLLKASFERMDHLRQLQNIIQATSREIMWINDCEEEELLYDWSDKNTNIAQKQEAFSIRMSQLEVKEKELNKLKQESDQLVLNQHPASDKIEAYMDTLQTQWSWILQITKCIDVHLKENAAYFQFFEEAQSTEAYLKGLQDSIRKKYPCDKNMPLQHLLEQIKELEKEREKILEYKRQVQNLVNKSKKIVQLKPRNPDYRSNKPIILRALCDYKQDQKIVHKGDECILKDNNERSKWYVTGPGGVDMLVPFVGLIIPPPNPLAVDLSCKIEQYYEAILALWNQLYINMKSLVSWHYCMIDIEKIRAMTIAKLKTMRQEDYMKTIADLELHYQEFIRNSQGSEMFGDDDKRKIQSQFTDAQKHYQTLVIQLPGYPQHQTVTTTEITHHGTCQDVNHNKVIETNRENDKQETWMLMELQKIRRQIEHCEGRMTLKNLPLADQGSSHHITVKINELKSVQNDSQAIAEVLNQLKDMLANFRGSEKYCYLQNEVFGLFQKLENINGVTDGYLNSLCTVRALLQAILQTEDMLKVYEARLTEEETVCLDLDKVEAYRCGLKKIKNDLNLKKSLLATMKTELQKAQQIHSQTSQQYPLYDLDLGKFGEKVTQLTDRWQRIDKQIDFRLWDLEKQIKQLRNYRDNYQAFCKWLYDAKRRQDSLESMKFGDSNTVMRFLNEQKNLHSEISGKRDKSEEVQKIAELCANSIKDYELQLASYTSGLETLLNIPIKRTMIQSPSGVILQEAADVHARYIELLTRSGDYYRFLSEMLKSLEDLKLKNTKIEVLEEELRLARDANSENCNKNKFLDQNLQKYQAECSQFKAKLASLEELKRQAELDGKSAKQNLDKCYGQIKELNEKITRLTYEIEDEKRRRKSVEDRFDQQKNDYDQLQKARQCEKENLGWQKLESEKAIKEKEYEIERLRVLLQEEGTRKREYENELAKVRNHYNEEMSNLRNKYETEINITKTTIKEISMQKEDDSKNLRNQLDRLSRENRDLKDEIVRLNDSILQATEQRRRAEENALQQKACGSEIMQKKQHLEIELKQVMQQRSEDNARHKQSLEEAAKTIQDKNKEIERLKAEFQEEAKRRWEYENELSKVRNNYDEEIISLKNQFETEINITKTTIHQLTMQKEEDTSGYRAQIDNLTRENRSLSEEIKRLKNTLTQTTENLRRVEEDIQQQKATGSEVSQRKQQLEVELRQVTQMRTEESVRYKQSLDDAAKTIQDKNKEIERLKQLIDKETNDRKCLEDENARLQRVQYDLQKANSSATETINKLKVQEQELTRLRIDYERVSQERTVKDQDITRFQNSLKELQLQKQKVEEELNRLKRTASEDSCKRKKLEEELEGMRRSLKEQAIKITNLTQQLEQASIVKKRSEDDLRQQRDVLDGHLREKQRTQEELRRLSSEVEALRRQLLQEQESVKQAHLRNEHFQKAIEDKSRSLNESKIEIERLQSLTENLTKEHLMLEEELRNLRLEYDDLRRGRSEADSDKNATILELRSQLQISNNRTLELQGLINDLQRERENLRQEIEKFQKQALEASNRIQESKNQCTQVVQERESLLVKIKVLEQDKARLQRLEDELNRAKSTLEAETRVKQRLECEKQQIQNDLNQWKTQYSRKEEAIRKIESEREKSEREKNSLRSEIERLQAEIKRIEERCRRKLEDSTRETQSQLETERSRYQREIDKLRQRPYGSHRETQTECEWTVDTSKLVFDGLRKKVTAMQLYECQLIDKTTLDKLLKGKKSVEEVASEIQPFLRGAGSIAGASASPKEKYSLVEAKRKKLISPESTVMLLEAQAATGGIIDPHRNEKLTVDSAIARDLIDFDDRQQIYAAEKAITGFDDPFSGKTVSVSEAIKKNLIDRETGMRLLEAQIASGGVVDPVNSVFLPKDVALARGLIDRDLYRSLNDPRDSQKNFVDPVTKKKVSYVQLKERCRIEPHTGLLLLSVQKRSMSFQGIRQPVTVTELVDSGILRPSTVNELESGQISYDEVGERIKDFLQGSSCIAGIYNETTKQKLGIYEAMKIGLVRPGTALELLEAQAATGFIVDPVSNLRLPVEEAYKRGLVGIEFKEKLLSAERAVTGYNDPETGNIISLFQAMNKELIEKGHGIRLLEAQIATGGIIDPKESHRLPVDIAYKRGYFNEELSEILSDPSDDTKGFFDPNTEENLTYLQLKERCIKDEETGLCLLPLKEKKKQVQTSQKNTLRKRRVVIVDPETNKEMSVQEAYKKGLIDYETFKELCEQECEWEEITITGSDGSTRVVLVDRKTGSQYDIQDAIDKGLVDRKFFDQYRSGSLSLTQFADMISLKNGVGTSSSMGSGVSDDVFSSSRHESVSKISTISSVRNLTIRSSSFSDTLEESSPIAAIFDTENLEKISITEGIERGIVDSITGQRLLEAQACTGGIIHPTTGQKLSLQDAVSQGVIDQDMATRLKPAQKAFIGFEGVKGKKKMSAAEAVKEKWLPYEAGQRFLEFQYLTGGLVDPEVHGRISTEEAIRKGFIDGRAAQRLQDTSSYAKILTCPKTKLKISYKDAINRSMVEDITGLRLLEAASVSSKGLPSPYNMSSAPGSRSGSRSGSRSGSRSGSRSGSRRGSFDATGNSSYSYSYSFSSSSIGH

For `C=C(c1ccc(C(=O)O)cc1)c1cc2c(cc1C)C(C)(C)CCC2(C)C` [Bexarotene], the remaining activity at 500 µM on sDSP (DSP178–627) [1] is 26%; at sDSP (DSP178–627) [2], 39%; on sDSP S507F, 4%; on sDSP (DSP178–627) [3], 84%; at sDSP (DSP178–627) [4] it was 81%.
Consider `NC1(Cc2ccc(Cl)cc2)CCN(c2ncnc3[nH]ccc23)CC1` [CCT128930], for which the remaining activity at 500 µM on sDSP (DSP178–627) [1] was found to be 20%; on sDSP (DSP178–627) [2], 32%; on sDSP S507F, 20%; on sDSP (DSP178–627) [3] it was 86%; at sDSP (DSP178–627) [4] it was 54%.
Regarding `COc1ccc(-c2cc(=O)c3c(O)cc(O)cc3o2)cc1O` [Diosmetin], the remaining activity at 500 µM was determined as 18% at sDSP (DSP178–627) [1]; 30% at sDSP (DSP178–627) [2]; 0% at sDSP S507F; 73% at sDSP (DSP178–627) [3]; 84% at sDSP (DSP178–627) [4].
In the same order, the values of `CC/C=C\C/C=C\C/C=C\C/C=C\C/C=C\C/C=C\CCC(=O)O` [Docosahexaenoic Acid] are 32%, 118%, 104%, -19% and -12%.
For `CCCCc1oc2ccc(NS(C)(=O)=O)cc2c1C(=O)c1ccc(OCCCN(CCCC)CCCC)cc1` [Dronedarone HCl], the remaining activity at 500 µM was found to be 23% at sDSP (DSP178–627) [1]; 20% on sDSP (DSP178–627) [2]; 25% at sDSP S507F; 0% at sDSP (DSP178–627) [3]; 143% on sDSP (DSP178–627) [4].
In the same order, the values of `CCCCCCCCc1ccc(CCC(N)(CO)CO)cc1` [Fingolimod] are -1%, -13%, 32%, 70% and 35%.
For the molecule `CNC(=O)c1c(F)cccc1Nc1nc(Nc2cc3c(cc2OC)CCN3C(=O)CN(C)C)nc2[nH]ccc12` [GSK1838705A], the remaining activity at 500 µM on sDSP (DSP178–627) [1] was determined as 32%; at sDSP (DSP178–627) [2] it was 34%; at sDSP S507F, 24%; at sDSP (DSP178–627) [3] it was 23%; on sDSP (DSP178–627) [4], 35%.
`Cc1ccc(NC(=O)c2ccc(CN3CCN(C)CC3)cc2)cc1Nc1nccc(-c2cccnc2)n1` [Imatinib]: the remaining activity at 500 µM is -3% at sDSP (DSP178–627) [1]; 4% on sDSP (DSP178–627) [2]; 108% at sDSP S507F; 62% at sDSP (DSP178–627) [3]; -6% at sDSP (DSP178–627) [4].
In the same order, the values of `Cn1cc(-c2ccc(F)c(C(F)(F)F)c2)nc1C1CCN(c2ncnc3[nH]ncc23)CC1` [LY2584702] are 18%, 15%, 84%, -40% and 67%.
The matching figures for `O=C(NC1CCN(CCCCC2(C(=O)NCC(F)(F)F)c3ccccc3-c3ccccc32)CC1)c1ccccc1-c1ccc(C(F)(F)F)cc1` [Lomitapide]: 32%, 40%, 4%, 62% and 118%.
As to `CN1CCN(C2=Nc3ccccc3Oc3ccc(Cl)cc32)CC1` [Loxipine Succinate], the remaining activity at 500 µM at sDSP (DSP178–627) [1] is 1%; at sDSP (DSP178–627) [2] it was -41%; at sDSP S507F, 107%; at sDSP (DSP178–627) [3] it was 101%; on sDSP (DSP178–627) [4] it was -8%.
Take `CCN(CC)CC#CCOC(=O)C(O)(c1ccccc1)C1CCCCC1` (stereo not shown) [Oxybutynin chloride]: the remaining activity at 500 µM at sDSP (DSP178–627) [1] is 24%; at sDSP (DSP178–627) [2] it was 31%; on sDSP S507F it was 77%; at sDSP (DSP178–627) [3] it was -5%; at sDSP (DSP178–627) [4] it was 91%.
For `Fc1ccc([C@@H]2CCNC[C@H]2COc2ccc3c(c2)OCO3)cc1` [Paraxetine], the remaining activity at 500 µM on sDSP (DSP178–627) [1] was 20%; at sDSP (DSP178–627) [2] it was 26%; at sDSP S507F it was 133%; on sDSP (DSP178–627) [3], -3%; on sDSP (DSP178–627) [4], -8%.
The matching figures for `CCCCCCCCCCCCOS(=O)(=O)O` [SDS]: 18%, -20%, -30%, 21% and 24%.
